These results are taken from ChEMBL document CHEMBL1147344, “New Chlorophyll-A-Related Compounds Isolated as Antioxidants from Marine Bivalves” (J Nat Prod, 1993).

Format in all cases: functional
A short description of test [1]: Antioxidant activity assessed as inhibition of lipid peroxidation at 3 ug incubated at 40 degC in dark by paper disk method.
Test [2] in a line: Antioxidant activity assessed as inhibition of lipid peroxidation at 20 ug incubated at 40 degC in dark by paper disk method.
Test [3] can be described thus: Antioxidant activity assessed as inhibition of lipid peroxidation in dark at 40 degC by paper disk method.

Activity calls are given as the source filed them. The calls are words filed in the database; no cut-off is given here.

`C=Cc1c(C)c2cc3nc4c5c6[nH]c(cc7nc(cc1[nH]2)C(C)=C7CC)c(C)c6C(=O)[C@@]5(O)C(=O)CC[C@H]4[C@@H]3C`: the result in test [1] was Active.

Turning to `C=Cc1c(C)c2cc3nc(c4c5[nH]c(cc6nc(cc1[nH]2)C(C)=C6CC)c(C)c5C(=O)C4=O)[C@@H](CCC(=O)O)[C@@H]3C`, the outcome in test [1] was Active.

`Cc1c(C)c2c(c(C)c1O)CC[C@@](C)(CCC[C@H](C)CCC[C@H](C)CCCC(C)C)O2`: the outcome in test [2] was Active.

Consider `C=Cc1c(C)c2cc3nc4c5c6[nH]c(cc7nc(cc1[nH]2)C(C)=C7CC)c(C)c6C(=O)O[C@@]5(O)C(=O)CC[C@H]4[C@@H]3C`, for which the result in test [1] was Active.

`C=Cc1c(C)c2cc3nc(c4c5[nH]c(cc6nc(cc1[nH]2)C(C)=C6CC)c(C)c5C(=O)C4)[C@@H](CCC(=O)O)[C@@H]3C`: the result in test [1] was Active.

For the molecule `C=Cc1c(C)c2cc3nc4c5c6[nH]c(cc7nc(cc1[nH]2)C(C)=C7CC)c(C)c6C(=O)[C@]5(O)C(=O)CC[C@H]4[C@@H]3C`, the result in test [3] was Active.

With `C=Cc1c(C)c2cc3nc(c4c5[nH]c(cc6nc(cc1[nH]2)C(C)=C6CC)c(C)c5C(=O)OC4=O)[C@@H](CCC(=O)OC)[C@@H]3C`, in test [1], the result was Active.

With `C=Cc1c(C)c2cc3nc(c4c5[nH]c(cc6nc(cc1[nH]2)C(C)=C6CC)c(C)c5C(=O)OC4=O)[C@@H](CCC(=O)O)[C@@H]3C`, the result in test [1] was Active.

Consider `C=Cc1c(C)c2cc3nc4c(c5[nH]c(cc6nc(cc1[nH]2)C(C)=C6CC)c(C)c5C(=O)OC)C(=O)C(=O)CC[C@H]4[C@@H]3C`, for which the outcome in test [1] was Active.
